In PMC3280264 (PLoS ONE, 2012):
Marks after values point to notes of the source that are not given here.

How the values were obtained:
Human SGLT2 = Human SGLT2 (Homo sapiens, UniProt P31639); assay: cell-based
Experimental: (§1) Sodium-dependent Glucose Uptake in Chinese Hamster Ovary (CHO) Cells Expressing SGLT1 and SGLT2 Co-transporters Parental CHO-K (CHOK) cells (commonly used mammalian cells for gene overexpression studies) expressing human or mouse SGLT1 and SGLT2 were utilized in this study. Cells were seeded into 96-well plates. Cells were then washed one time with 0.15 ml assay buffer (137 mM NaCl, 5 mM KCl, 1 mM CaCl2, 1 mM MgCl2, 50 mM HEPES, pH 7.4) at 37°C. […] Then, 5 µl of 6 mM alpha-methyl-D-glucopyranoside (AMG, a selective SGLT1/2 substrate)/^14C-AMG (0.07 µCi) was added to the cells and incubated at 37°C for 2 hours. Next, the cells were washed 3 times with 0.15 ml ice-cold phosphate-buffered saline (PBS). After the final wash was aspirated, 50 µl of microscint 20 (Packard, Meriden, Connecticut, USA) was added. The plate was counted by TopCount (Packard, Meriden, Connecticut, USA).
(§2) Statistical analysis was performed using the program Prism (Graphpad, Monrovia, California, USA). Differences between groups were evaluated using 1-way […] with Dunnett's multiple comparison test or student's t-test (unpaired), as appropriate. Probabilities less than 5% (P<0.05) were considered to be statistically significant. […] All data are presented as mean ± standard error.

Mouse SGLT2 = Mouse SGLT2 (Mus musculus, UniProt Q923I7); assay: cell-based
Chain of Mouse SGLT2 (Q923I7 whole entry): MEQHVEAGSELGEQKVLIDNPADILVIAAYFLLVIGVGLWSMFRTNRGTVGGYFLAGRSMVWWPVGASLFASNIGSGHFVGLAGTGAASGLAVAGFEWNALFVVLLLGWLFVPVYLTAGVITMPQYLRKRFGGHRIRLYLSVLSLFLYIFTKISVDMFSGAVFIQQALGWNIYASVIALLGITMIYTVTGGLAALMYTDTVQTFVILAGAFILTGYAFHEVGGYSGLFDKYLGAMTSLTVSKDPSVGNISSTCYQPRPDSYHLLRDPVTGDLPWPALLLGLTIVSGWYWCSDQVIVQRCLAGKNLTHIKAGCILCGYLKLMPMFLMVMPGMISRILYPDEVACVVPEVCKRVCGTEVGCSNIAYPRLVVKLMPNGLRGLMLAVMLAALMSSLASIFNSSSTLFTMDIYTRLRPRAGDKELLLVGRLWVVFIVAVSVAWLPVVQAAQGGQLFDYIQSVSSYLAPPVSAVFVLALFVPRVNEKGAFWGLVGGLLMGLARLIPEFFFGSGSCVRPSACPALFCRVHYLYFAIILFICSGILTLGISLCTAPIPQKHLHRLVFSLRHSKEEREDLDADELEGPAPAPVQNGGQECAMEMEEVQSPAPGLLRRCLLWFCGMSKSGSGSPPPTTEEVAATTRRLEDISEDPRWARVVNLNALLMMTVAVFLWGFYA
Experimental: as §1, §2

Mouse SGLT1 = target: T1, Mouse SGLT1 (Mus musculus, UniProt Q8C3K6); assay: 14C-AMG uptake in CHOK cells expressing mouse SGLT1; assay type: cell-based; details: CHO-mSGLT1 cells, mean of 2 experiments
T1 construct: expressed in transfected cells; host or cells: CHO-K (CHOK) cells
T1 sequence (Q8C3K6 1-665): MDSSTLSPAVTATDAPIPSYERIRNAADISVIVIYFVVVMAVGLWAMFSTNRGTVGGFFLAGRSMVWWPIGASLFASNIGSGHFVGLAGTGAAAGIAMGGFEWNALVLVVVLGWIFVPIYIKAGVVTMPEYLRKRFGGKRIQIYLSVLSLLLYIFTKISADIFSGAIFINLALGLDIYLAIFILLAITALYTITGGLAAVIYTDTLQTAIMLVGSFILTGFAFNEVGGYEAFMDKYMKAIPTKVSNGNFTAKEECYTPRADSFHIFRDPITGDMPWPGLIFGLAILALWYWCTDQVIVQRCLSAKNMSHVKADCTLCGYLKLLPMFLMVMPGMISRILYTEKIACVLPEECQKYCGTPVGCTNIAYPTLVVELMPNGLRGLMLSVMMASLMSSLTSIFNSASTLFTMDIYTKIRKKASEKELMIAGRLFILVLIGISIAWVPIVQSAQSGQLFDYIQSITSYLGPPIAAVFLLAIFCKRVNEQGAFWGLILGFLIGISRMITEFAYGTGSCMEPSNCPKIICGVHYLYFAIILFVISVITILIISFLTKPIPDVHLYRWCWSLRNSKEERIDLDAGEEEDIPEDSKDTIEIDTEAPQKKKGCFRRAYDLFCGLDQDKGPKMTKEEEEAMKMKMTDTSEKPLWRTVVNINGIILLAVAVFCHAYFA
Experimental: Cells were seeded into 96-well plates.
All data are presented as mean ± standard error.

ZDF rats [1] = assay: 4-week treatment of ZDF rats (glycemic control, OGTT); assay type: in vivo, rat; details: 4 weeks; for OGTT Ratio of insulin AUC/glucose AUC / Insulin / HbA1c / OGTT Plasma insulin (AUC0–120 min) / Fed plasma glucose / OGTT Blood glucose (AUC0–120 min): ZDF rats; for OGTT Ratio of insulin AUC/glucose AUC: vehicle 0.003±0.000; for Insulin: vehicle 5.2±0.4; for HbA1c: vehicle 11.5±0.3; for OGTT Plasma insulin (AUC0–120 min): vehicle 221±13; for Fed plasma glucose: vehicle 598.2±18.0; for OGTT Blood glucose (AUC0–120 min): vehicle 70,704±1289
Text: (§3) Four rodent models were used in these experiments: (1) male C57BL/6J mice fed with a high-fat diet (D-12492 with 60 kcal% fat, Research Diets, Inc, New Jersey, USA) (diet-induced obese, insulin resistantmice [DIO]); (2) male C57BL/ksj-db/db hyperglycemic mice; (3) male Zucker fatty (ZF) obese, insulin resistant rats; and (4) male ZDF obese, hyperglycemic rats. All animals were housed according to standard procedures following a protocol approved by the IACUC in Drug Discovery at Johnson & Johnson Pharmaceutical Research & Development, LLC.
BG levels were monitored at 0, 0.5, 1, 3, 6, and 24 hours after dosing. […] BG levels were monitored weekly, and HbA1c, plasma glucose, and insulin levels were determined at the end of the 4-week treatment. An oral glucose tolerance test (OGTT) ([…] of body weight, given by gavage) was conducted in ZDF rats after 4 weeks of treatment. Blood was sampled at 0, 30, 60, and 120 minutes after glucose challenge from the tail vein for measurement of BG levels using a glucometer (One Touch Ultra, LifeScan, Milpitas, California, USA) and plasma insulin using ELISA method (ALPCO, Salem, New Hampshire, USA).

ZDF rats [2] = assay: Graded glucose infusion, renal threshold for glucose excretion in ZDF rats; assay type: in vivo, rat; details: 1 mg/kg
Text: as §3
Two separate graded glucose infusion (GGI) studies were performed to characterize renal glucose handling in both untreated and treated ZDF rats. […] The RTG was determined as described below.
The relationship between UGE and BG is commonly described as a threshold relationship in which there is little UGE when BG<RTG and UGE increases with filtered glucose load when BG>RTG, where the filtered glucose load is equal to the BG concentration multiplied by the glomerular filtration rate (GFR). […] (1) Values of RTG were determined using nonlinear regression (nlinfit in Matlab version 7.10) with Equation 1 and the measured BG and UGE values.

Chain of Human SGLT2 (P31639 whole entry): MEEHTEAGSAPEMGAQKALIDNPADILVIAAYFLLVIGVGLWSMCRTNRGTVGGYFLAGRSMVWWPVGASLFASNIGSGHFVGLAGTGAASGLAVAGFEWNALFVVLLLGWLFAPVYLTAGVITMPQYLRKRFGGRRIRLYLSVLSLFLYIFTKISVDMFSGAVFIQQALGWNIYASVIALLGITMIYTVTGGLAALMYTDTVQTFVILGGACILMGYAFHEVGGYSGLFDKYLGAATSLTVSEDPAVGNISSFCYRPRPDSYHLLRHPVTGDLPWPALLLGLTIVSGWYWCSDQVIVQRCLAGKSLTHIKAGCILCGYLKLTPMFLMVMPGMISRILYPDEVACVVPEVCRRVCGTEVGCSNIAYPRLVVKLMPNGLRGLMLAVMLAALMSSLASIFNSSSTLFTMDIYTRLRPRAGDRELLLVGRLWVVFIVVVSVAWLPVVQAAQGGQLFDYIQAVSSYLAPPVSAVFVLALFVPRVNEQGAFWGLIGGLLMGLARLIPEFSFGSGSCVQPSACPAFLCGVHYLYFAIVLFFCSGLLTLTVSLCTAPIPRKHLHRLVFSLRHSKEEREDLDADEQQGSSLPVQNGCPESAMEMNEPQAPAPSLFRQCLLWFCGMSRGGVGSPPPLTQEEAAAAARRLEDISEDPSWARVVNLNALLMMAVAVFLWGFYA

## Cc1ccc([C@@H]2O[C@H](CO)[C@@H](O)[C@H](O)[C@H]2O)cc1Cc1ccc(-c2ccc(F)cc2)s1 [canagliflozin, Canagliflozin]
Human SGLT2
  IC50: 4.4 ± 1.2 nM
Mouse SGLT2
  IC50: 2 nM
Mouse SGLT1
  IC50: > 1000 nM
ZDF rats [1]; 3 mg/kg
  OGTT Ratio of insulin AUC/glucose AUC: 0.013±0.002 ^a (ng/ml•min)/mg/dl•min)
  Insulin: 7.9±0.1 ^a ng/ml
  HbA1c: 7.1±0.3 ^a %
  OGTT Plasma insulin (AUC0–120 min): 342±27 ^a ng/ml•min
  Fed plasma glucose: 248.0±13.5 ^a mg/dl
  OGTT Blood glucose (AUC0–120 min): 27,883±1806 ^a mg/dl•min
ZDF rats [1]; 10 mg/kg
  OGTT Ratio of insulin AUC/glucose AUC: 0.017±0.002 ^a (ng/ml•min)/mg/dl•min)
  Insulin: 7.9±0.1 ^a ng/ml
  HbA1c: 5.6±0.3 ^a %
  OGTT Plasma insulin (AUC0–120 min): 403±33 ^a ng/ml•min
  Fed plasma glucose: 182.0±7.1 ^a mg/dl
  OGTT Blood glucose (AUC0–120 min): 23,989±1881 ^a mg/dl•min
ZDF rats [1]; 30 mg/kg
  OGTT Ratio of insulin AUC/glucose AUC: 0.018±0.002 ^a (ng/ml•min)/mg/dl•min)
  Insulin: 7.8±0.1 ^a ng/ml
  HbA1c: 5.5±0.3 ^a %
  OGTT Plasma insulin (AUC0–120 min): 288 ± 34 ng·min/mL
  Fed plasma glucose: 199.9±14.7 ^a mg/dl
  OGTT Blood glucose (AUC0–120 min): 16,549±822 ^a mg/dl•min
ZDF rats [1]; ZDF rats, 3, 10 or 30 mg/kg
  increase in the insulin/glucose ratio following an OGTT, relative to vehicle-treated animals: 4-to-6 fold
ZDF rats [2]; insulin + GGI study
  BG at which negligible UGE occurred: < 90 mg/dL
ZDF rats [2]; untreated 415±12 mg/dl
  renal threshold for glucose excretion (RTG): 94 ± 10 mg/dL
